Test results reported in patent US20250057864A1, “COMPOSITION FOR IMPROVING EXERCISE PERFORMANCE COMPRISING GYPENOSIDE COMPOUND AS ACTIVE INGREDIENT” (BTC CORPORATION, priority 2022, published 2025).

Legend:
C2C12 cells = test: Intracellular ROS production in C2C12 cells (DCF-DA); format: cell-based, mice; details: oxidative stress by 50 μM TBHP, 1 h pretreatment with test substance
Description: C2C12 cells were dispensed into a 96-well plate at 1×10^4 cells/well and stabilized for 24 hours. Subsequently, the cells were cultured for 1 hour after exchanging with the culture medium with the myocyte differentiation medium containing each test substance. After 1 hour, the cells were washed with PBS and cultured further for 3 hours with a culture medium containing 50 μM tert-butyl hydrogen peroxide (TBHP), and the ROS level in the cells was measured using a DCF-DA assay kit (Abcam) according to the manufacturer's method.
In order to investigate the effect of each of the compositions according to Examples 1 to 4 on ROS production in C2C12 cells, ROS production was measured using 2′,7′-dichlorofluorescin diacetate (DCF-DA). DCF-DA was measured using the principle that it is oxidized by ROS in cells and is converted to DCF, which emits fluorescence.

ICR mice [1] = test: Weight-loaded forced swimming test, time to exhaustion; format: in vivo; details: forced swimming with 5% BW load, day 14, oral 7 mg/kg BW
Description: After an acclimatization period of 1 week, healthy animals were selected and divided into 6 groups of 10 mice per group according to the randomized block design. A normal control group was orally administered with 5% Tween 80-saline, and a composition was orally administered with Creatine monohydrate (Cr) at 75 mg/kg body weight (BW). Test groups (G2 to G5) were orally administered the compositions of Examples 1 to 4 dissolved in drinking water to 7 mg/kg body weight (BW) at regular times for 17 days. Throughout the test period, the experimental animals were given free access to solid feed for experimental animals (Cargill Agri Puna) and drinking water.
Weight-loaded forced swimming test was performed for the experimental animals as follows. A plastic pool (90×45×45 cm) was filled with water at the depth of 35 cm and the temperature of the water was maintained at 25±1° C. After attaching a weight (5% of the body weight of the experimental animal) to the tail, the experimental animal was forced to swim in the pool.
On days 10 and 12 after the administration of the test substance, swimming adaptation exercise was given twice for 15 minutes each. Two days after the final swimming adaptation exercise (on day 14 after the administration of the test substance), forced swim test was performed after fasting the experimental animal for 16 hour, and the time until exhaustion was measured. […]

ICR mice [2] = test: Serum markers after 60 min forced swimming without weight load; format: in vivo; details: serum after 60 min forced swimming, day 17, oral 7 mg/kg BW
Description: On day 17 after the administration of the test substance, the experimental animal was forced to swim (for 60 minutes) without a weight load. Then, the experimental animal was anesthetized using an anesthetic prepared by dilution of tribromoethanol with tertiary amyl alcohol and blood was taken from the eye socket. The blood was placed in a serum-separating tube (Becton Dickinson) and left at room temperature for 30 minutes, centrifuged at 3,000 rpm for 20 minutes to separate the serum, and kept at −70° C. until analysis.
Blood urea nitrogen (BUN) and creatinine (CREA) content in the serum and the activities of alanine aminotransferase (ALT), aspartate aminotransferase (AST), creatine kinase (CK) and lactate dehydrogenase (LDH) were measured using a blood biochemistry analyzer (KoneLab 20 XT, Thermo Fisher Scientific). The serum lactate content was measured using a lactate assay kit (Abcam) according to the method proposed by the manufacturer.
The result of measuring the contents of lactate, BUN and CREA and the activities of CK, LDH, ALT and AST in the serum taken after forced swimming for 60 minutes without weight load is shown in Table 19.

ICR mice [3] = test: Treadmill test: exercise time and exercise capacity until exhaustion; format: in vivo; details: 6 weeks
Description: After an acclimatization period of 1 week, healthy animals were selected and divided into 6 groups according to the randomized block design. The animals were divided into (G1) a non-exercise control group, (G2) a non-exercise+7 mg/kg body weight (BW) Example 1 group, (G3) a non-exercise+7 mg/kg BW Example 2 group, (G4) a non-exercise+7 mg/kg BW Example 3 group, (G5) a non-exercise+7 mg/kg BW Example 4 group, (G6) an exercise control group, (G7) an exercise+7 mg/kg BW Example 1 group, (G8) an exercise+7 mg/kg BW Example 2 group, (G9) an exercise+7 mg/kg BW Example 3 group, (G10) an exercise+7 mg/kg BW Example 4 group, and (G11) an exercise+75 mg/kg BW Cr dose group. Each test group consisted of 10 animals.
The test substance was dissolved in drinking water and administered every day at regular times (2 hours before exercise) for 6 weeks. Throughout the test period, the experimental animals were given free access to solid feed for experimental animals (Cargill Agri Puna) and drinking water.
The endurance exercise of the animals was conducted for 6 weeks using a treadmill for small animals (Exer3/6 Treadmill, Columbus Instruments). The endurance exercise was conducted with 10 degrees of slope at 10 m/min, starting from for 15 minutes in the first week, for 20 minutes in the second week, for 25 minutes in the third week, for 30 minutes in the fourth week, for 35 minutes in the fifth week, and for 40 minutes in the sixth week.
After 6 weeks of the exercise training, in order to evaluate endurance exercise performance, exercise was started with 10 degrees of slope at 10 m/min for 5 minutes, and the intensity of the exercise was increased by 1 m/min every 1 minute up to the highest speed of 25 m/min. The duration of the exercise until exhaustion was measured. The experimental animal was judged to be exhausted if it was unable to run for 10 seconds or longer at the back of the treadmill. The exercise capacity of the experimental animal was calculated as follows.
In order to evaluate the performance of the effect of the test substances on endurance exercise performance, exercise was started with 10 degrees of slope at 10 m/min for 5 minutes, and the intensity of the exercise was increased by 1 m/min every 1 minute up to the highest speed of 25 m/min.

[4] = non-exercise, 7 mg/kg BW, treadmill test
[5] = treadmill exercise, 7 mg/kg BW (Cr 75 mg/kg BW)

## CC(C)=CCC[C@](C)(O)C1CC[C@]2(C)C1[C@H](O)CC1[C@@]3(C)C[C@@H](O)C(OC4OC(CO)C(O)C(O)C4OC4OC(CO)C(O)C(O)C4O)C(C)(C)C3CC[C@]12C (stereo partly drawn) [Example 1, Gypenoside L]
C2C12 cells
  ROS production (fluorescence intensity): 22.12 ± 0.70 fluorescence intensity
ICR mice [1]
  Time to exhaustion: 1193.4 ± 176.8 s
ICR mice [2]
  ALT: 100.41 ± 19.75 U/L
  AST: 160.81 ± 20.53 U/L
  BUN: 8.15 ± 0.68 mg/dL
  CK: 1896.1 ± 196.4 U/L
  CREA: 0.35 ± 0.01 mg/dL
  LDH: 1224.3 ± 162.1 U/L
ICR mice [3]; [4]
  Exercise capacity: 1,583 ± 91 g
  Time until exhaustion (sec): 1,472 ± 66 sec
ICR mice [3]; [5]
  Exercise capacity: 2,832 ± 119^+ g
  Time until exhaustion (sec): 2,393 ± 93^+ sec
